Test results reported in article PMC9822155, “Synthesis and Antiproliferative Activity against Cancer Cells of Indole-Aryl-Amide Derivatives” (Molecules, 2022).

Assays:
Jurkat J6 cells = test: MTT viability assay, Jurkat J6; type: cell-based, human; details: Homo sapiens, Jurkat; MTT, 24 h
Excerpt: (§1) To investigate whether the compounds have an antitumor activity, we performed in vitro viability assays against a panel of cancer cell lines: HT29 (human colorectal adenocarcinoma), HeLa (human cervical carcinoma), IGROV-1 (human ovarian carcinoma), MCF7 (human breast cancer), PC-3 (human prostate adenocarcinoma), and Jurkat J6 (human […]). The I407 (human embryonic intestinal) and 3T3 (mouse embryonic fibroblast) cells were used as controls. The growth inhibitory concentration was determined by incubating the cells with increasing concentrations (0.01–500 μM) of the compounds for 24 h. Data obtained from cell growth assays were elaborated to assess the concentration of cell viability (IC50) and selectivity indices (SI), and the results are shown in Table 2 and Table 3, respectively.
(§2) HT29 human colorectal adenocarcinoma cells, HeLa human cervix adenocarcinoma cells, MCF7 human breast adenocarcinoma cells, PC-3 human prostate adenocarcinoma cells, J6 Jurkat Clone E6-1 acute T cell leukemia, the healthy I407 human intestine cells, and mouse embryonic fibroblast 3T3 fibroblasts as controls cell lines were purchased from American Type Culture Collection (ATCC, Manassas, VA). The human ovarian cancer cell line IGROV1 has been kindly provided by Prof. Colnaghi (Istituto Nazionale Tumori (IRCCS) (Milano, Italy). Cells were cultured in RPMI 1640 medium (Labtek Eurobio, Milan, Italy), supplemented with 10% FCS (Euroclone, Milano, Italy) and 2 mM L-glutamine (Sigma-Aldrich, Milano, Italy), at 37 °C, and a 5% CO2 atmosphere. The compounds were dissolved in DMSO in a 30–40 mM stock solution. In cell treatments, the final DMSO concentration never exceeded 0.1%.
(§3) Cells were seeded at 1.5 × 10^4 cells/well in a 96-well culture plastic plate (Sarsted, Milan, Italy), and after 24 h of growth were exposed to increasing concentrations of each distinct compound (from 0.010 μM to 500 μM) solubilized in RPMI 1640 medium. MTT assay was performed according to the literature. In brief, after 24 h of treatment, the culture medium was replaced with 0.1 mL of 3-(4,5-dimethylthiazolyl-2)-2,5-diphenyltetrazolium bromide (MTT, Sigma-Aldrich, Milano, Italy) dissolved in PBS at the concentration of 0.2 mg/mL, and samples were incubated for 2 h at 37 °C. The absorbance at 570 nm was measured using a multiwell plate reader (Tecan, Männemorf, Switzerland), and data were analyzed by Prism GraphPad software, and expressed as IC50 μM.

[1] = system: MCF7 (human breast cancer) cells; test: MTT viability assay, MCF7; type: cell-based; details: for IC50: Homo sapiens, MCF7, MTT, 24 h
Excerpt: as §1, §2, §3

δ-OR = target: T1, δ-OR (Homo sapiens, UniProt P41143); test: Radioligand binding assay, δ-OR ([3H]deltorphin-2 displacement); details: [3H]deltorphin-2, membranes of CHO cells with human recombinant OR; ± SEM (n ≥ 3)
T1 construct: purchased PerkinElmer (Krakow, Poland); host or cells: CHO cells (membranes)
T1 sequence (P41143 whole entry): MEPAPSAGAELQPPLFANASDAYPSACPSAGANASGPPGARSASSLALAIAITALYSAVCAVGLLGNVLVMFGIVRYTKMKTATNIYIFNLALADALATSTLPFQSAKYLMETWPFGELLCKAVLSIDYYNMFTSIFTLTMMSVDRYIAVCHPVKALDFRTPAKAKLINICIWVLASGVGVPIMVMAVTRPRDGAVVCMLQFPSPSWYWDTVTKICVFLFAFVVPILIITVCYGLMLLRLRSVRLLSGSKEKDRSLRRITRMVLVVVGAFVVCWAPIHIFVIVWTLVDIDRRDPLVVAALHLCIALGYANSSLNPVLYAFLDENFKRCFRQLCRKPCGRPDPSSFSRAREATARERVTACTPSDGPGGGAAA
Protocol: (§4) In order to evaluate the affinity of the compounds for μ-, δ-, κ-ORs, radioligand binding assays were performed. Displacement of radioligands, [^3H]DAMGO (μ-OR selective), [^3H]deltorphin-2 (δ-OR selective), and [^3H]U-69593 (κ-OR selective) by the synthetic analogs was investigated in the commercial membranes of CHO cells transfected with human recombinant ORs. […] Due to the modest receptor affinities, the functional activity of the compounds was not investigated.
(§5) Opioid radioligands, [^3H]DAMGO, [^3H]deltorphin-2 and [^3H]U-69593, and human recombinant opioid receptors came from PerkinElmer (Krakow, Poland). GF/B glass fiber strips were purchased from Whatman (Brentford, UK).
(§6) To determine the affinity of peptide analogs at the respective receptors, competition binding experiments were performed. Commercial membranes of CHO cells stably expressing human opioid receptors and the competing radioligands, [^3H]DAMGO, [^3H]deltorphin-2, and [^3H]U-69593 for μ-OR, δ-OR, and κ-OR, respectively, were used. Membranes were incubated in 0.5 mL volume of 50 mM Tris/HCl (pH = 7.4), 0.5% bovine serum albumin (BSA), with a number of peptidase inhibitors (bacitracin, bestatin, captopril) and various concentrations of radioligands for 2 h at 25 °C. Non-specific binding was assessed in the presence of […]. Three independent experiments for each assay were carried out in duplicate. The data were analyzed by a nonlinear least square regression analysis computer program Graph Pad PRISM 6.0 (Graph Pad Software Inc., San Diego, CA, USA). The IC50 values were determined from the logarithmic concentration-displacement curves, and the values of the inhibitory constants (Ki) were calculated according to the equation of Cheng and Prusoff.

[2] = system: IGROV-1 (human ovarian carcinoma) cells; test: MTT viability assay, IGROV-1; type: cell-based; details: 24 h
Excerpt: as §1, §2, §3

[3] = system: I407 (human embryonic intestinal) cells; test: MTT viability assay, I407; type: cell-based; details: Homo sapiens, 24 h, normal cells
Excerpt: as §1, §2, §3

[4] = system: PC-3 (human prostate adenocarcinoma) cells; test: MTT viability assay, PC3; type: cell-based; details: for IC50: Homo sapiens, MTT, 24 h
Excerpt: as §1, §2, §3

[5] = system: 3T3 (mouse embryonic fibroblast) cells; test: MTT viability assay, 3T3; type: cell-based; details: 24 h, normal cells
Excerpt: as §1, §2, §3

[6] = system: HeLa (human cervical carcinoma) cells; test: MTT viability assay, HeLa; type: cell-based; details: for Selectivity Index IC503T3/ IC50HeLa: 3T3 normal cells as reference; for IC50: Homo sapiens, MTT, 24 h; for Selectivity Index IC50I407/ IC50HeLa: I407 normal cells as reference
Excerpt: as §1, §2, §3

[7] = system: HT29 (human colorectal adenocarcinoma) cells; test: MTT viability assay, HT29; type: cell-based; details: for Selectivity Index IC503T3/ IC50HT29: 3T3 normal cells as reference; for IC50: Homo sapiens, HT-29, MTT, 24 h
Excerpt: as §1, §2, §3

κ-OR = target: T2, κ-OR (Homo sapiens, UniProt P41145); test: Radioligand binding assay, κ-OR ([3H]U-69593 displacement); details: [3H]U-69593, membranes of CHO cells with human recombinant OR; ± SEM (n ≥ 3)
T2 construct: purchased PerkinElmer (Krakow, Poland); host or cells: CHO cells (membranes)
T2 sequence (P41145 whole entry): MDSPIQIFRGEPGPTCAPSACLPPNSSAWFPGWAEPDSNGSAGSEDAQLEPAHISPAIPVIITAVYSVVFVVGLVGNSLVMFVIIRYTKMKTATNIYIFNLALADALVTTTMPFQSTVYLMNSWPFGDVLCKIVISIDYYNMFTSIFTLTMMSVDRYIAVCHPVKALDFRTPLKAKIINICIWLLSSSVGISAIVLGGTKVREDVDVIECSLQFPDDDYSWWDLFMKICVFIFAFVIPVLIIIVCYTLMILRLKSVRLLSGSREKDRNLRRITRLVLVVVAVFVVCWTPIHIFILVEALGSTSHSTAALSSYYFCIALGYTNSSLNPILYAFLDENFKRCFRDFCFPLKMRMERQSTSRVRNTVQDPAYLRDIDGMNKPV
Protocol: as §4, §5, §6

μ-OR = target: T3, μ-OR (Homo sapiens, UniProt P35372); test: Radioligand binding assay, μ-OR ([3H]DAMGO displacement); details: membranes of CHO cells with human recombinant OR, ± SEM (n ≥ 3)
T3 construct: purchased PerkinElmer (Krakow, Poland); host or cells: CHO cells (membranes)
T3 sequence (P35372 whole entry): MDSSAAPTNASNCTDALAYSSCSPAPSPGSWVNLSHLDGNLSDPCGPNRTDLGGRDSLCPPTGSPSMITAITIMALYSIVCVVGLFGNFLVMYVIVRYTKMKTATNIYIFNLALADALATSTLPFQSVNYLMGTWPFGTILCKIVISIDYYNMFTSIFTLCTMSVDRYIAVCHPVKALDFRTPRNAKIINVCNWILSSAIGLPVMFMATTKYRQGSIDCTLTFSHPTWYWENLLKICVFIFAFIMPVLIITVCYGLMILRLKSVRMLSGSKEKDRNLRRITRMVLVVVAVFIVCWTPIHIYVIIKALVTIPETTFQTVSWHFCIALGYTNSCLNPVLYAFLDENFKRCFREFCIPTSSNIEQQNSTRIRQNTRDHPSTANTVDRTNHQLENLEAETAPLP
Protocol: as §4, §5, §6

Compound	IC50 (Jurkat J6 cells) [µM]	IC50 [1] [µM]	Ki (δ-OR) [µM]	IC50 [2] [µM]	IC50 [3] [µM]	IC50 [4] [µM]	IC50 [5] [µM]	Selectivity Index IC503T3/ IC50HeLa [6]	IC50 [6] [µM]	Selectivity Index IC50I407/ IC50HeLa [6]	Selectivity Index IC503T3/ IC50HT29 [7]	IC50 [7] [µM]	Selectivity Index IC50I407/ IC50HT29 ([7]; I407 normal cells as reference)	Ki (κ-OR) [µM]	Selectivity Index IC50I407/ IC50MCF7 ([1]; I407 normal cells as reference)	Selectivity Index IC50I407/ IC50PC3 ([4]; I407 normal cells as reference)	Ki (μ-OR) [µM]	Ki (µM) κ-OR (κ-OR)	Selectivity Index IC503T3/ IC50MCF7 ([1]; 3T3 normal cells as reference)	Selectivity Index IC503T3/ IC50PC3 ([4]; 3T3 normal cells as reference)
O=C(CCc1ccc(O)cc1)N(CCc1c[nH]c2ccccc12)Cc1ccccc1 [Compound 1]	> 500	> 500	37.1 ± 1.4	> 500	63 ± 0.06	> 500	164.3 ± 0.01	6.572	25 ± 0.06	2.52	530	0.31 ± 0.06	203.23	5 ± 2.9						
Nc1ccc(CC(=O)N(CCc2c[nH]c3ccccc23)Cc2ccccc2)cc1 [Compound 2]	> 500	0.81 ± 0.03	9 ± 0.6	> 500	0.35 ± 0.03	2.13 ± 0.04	> 500		> 500			> 500		2.5 ± 0.4	0.432	0.164	54.6 ± 3.5	low μM range		
Nc1ccc(CC(=O)Nc2ccc(CC(=O)N(CCc3c[nH]c4ccccc34)Cc3ccccc3)cc2)cc1 [Compound 3]	> 500	> 500	6.5 ± 0.8	> 500	75 ± 0.07	> 500	0.5 ± 0.04	0.089	5.64 ± 0.01	13.29		> 500		7.8 ± 0.2			10.7 ± 1.7			
Nc1ccc(CNC(=O)Cc2c[nH]c3ccccc23)cc1 [Compound 4]	> 500	0.84 ± 0.03		> 500	> 500	> 500	0.63 ± 0.02	0.337	1.87 ± 0.02		0.656	0.96 ± 0.04		7.4 ± 1.3					0.75	
NC(=O)CN(Cc1ccc(N)cc1)C(=O)Cc1c[nH]c2ccccc12 [Compound 6]	> 500	> 500	85.5 ± 2	> 500	> 500	166 ± 0.03	0.11 ± 0.03		> 500			> 500		26.7 ± 9.5			451 ± 11			0.001
Nc1ccc(CN(CCCO)C(=O)Cc2c[nH]c3ccccc23)cc1 [Compound 7]	> 500	0.49 ± 0.01	115 ± 45	> 500	> 500	> 500	> 500		> 500			> 500		3.8 ± 0.3				low μM range		
